Data as given in publication PMC9182104 (Molecules, 2022).
Several values for one entry are separate records, joined by “and”; a condition that tells them apart may be missing. Equal values may be shown once. Read-outs that look alike come from different tables or passages of the source.

Key:
[1] = target: PDE5A (Homo sapiens, UniProt O76074); test: Enzymatic assay of PDE5A (3H-cGMP substrate); format: biochemical; conditions: for inhibition at 0.1 µM / inhibition at 0.5 µM: 0.25 h; for IC50: PDE5, mean ± SD of three independent experiments
[2] = Rat liver microsomal stability; format: in vitro ADME; conditions: rat liver microsomes, compound 0.5 μM; read-out: T1/2 in RLM
[3] = cited from earlier work
[4] = tested on: fibrosis markers α-SMA and FN; design: method as in earlier work; conditions: rat, bleomycin-induced pulmonary fibrosis; cited from earlier work
[5] = PDE5, compound at 0.1 μM, read-out: Inhibition Ratio (%) 0.1 μM
[6] = PDE5, compound at 0.5 μM, read-out: Inhibition Ratio (%) 0.5 μM

SMILES | inhibition at 0.1 µM [1, 5] [%] | inhibition at 0.5 µM [1, 6] [%] | IC50 [1] | also measured
O[C@@H]1CCN(c2nc(N3CCSC3)c3nc(N4CC[C@@H](O)C4)nc(N4CCSC4)c3n2)C1 [(R)-5c, (3R,3′R)-1,1′-(4,8-di(thiazolidin-3-yl)pyrimido[5,4-d]pyrimidine-2,6-diyl)bis(pyrrolidin-3-ol)] | 45 | 74 | 0.198 ± 0.045 µM | 
OC1CCN(c2nc(N3CCC(F)CC3)c3nc(N4CCC(O)C4)nc(N4CCC(F)CC4)c3n2)C1 (stereo not shown) [6c, 1,1′-(4,8-bis(4-fluoropiperidin-1-yl)pyrimido[5,4-d]pyrimidine-2,6-diyl)bis(pyrrolidin-3-ol)] | 5 | 20 |  | 
O[C@@H]1CCCN(c2nc(N3CCC(F)CC3)c3nc(N4CCC[C@@H](O)C4)nc(N4CCC(F)CC4)c3n2)C1 [(R)-6a, (3R,3′R)-1,1′-(4,8-bis(4-fluoropiperidin-1-yl)pyrimido[5,4-d]pyrimidine-2,6-diyl)bis(piperidin-3-ol)] | 8 | 36 |  | 
O[C@H]1CCN(c2nc(N3CCSC3)c3nc(N4CC[C@H](O)C4)nc(N4CCSC4)c3n2)C1 [(S)-5c, (3S,3′S)-1,1′-(4,8-di(thiazolidin-3-yl)pyrimido[5,4-d]pyrimidine-2,6-diyl)bis(pyrrolidin-3-ol)] | 36 | 49 |  | 
OCCN(CCO)c1nc(N2CCCCC2)c2nc(N(CCO)CCO)nc(N3CCCCC3)c2n1 [DIP, Dipyridamole, reference compound] |  |  |  | inhibition at 0.1 µM ([1]; read-out: Inhibition Ratio (%) 0.1 μM, PDE5, compound at 0.1 μM): 17%; inhibition at 0.5 µM ([1]; read-out: Inhibition Ratio (%) 0.5 μM, PDE5, compound at 0.5 μM): 84%; solubility in water [3]: practically insoluble in water; levels of fibrosis markers α-SMA and FN [4]: significantly decreased
OCC1CCCN(c2nc(N3CCSC3)c3nc(N4CCCC(CO)C4)nc(N4CCSC4)c3n2)C1 (stereo not shown) [5b, ((4,8-di(thiazolidin-3-yl)pyrimido[5,4-d]pyrimidine-2,6-diyl)bis(piperidine-1,3-diyl))dimethanol] | 52 | 79 | 0.167 ± 0.041 µM | 
OCCN(CCO)c1nc(N2CCOCC2)c2nc(N(CCO)CCO)nc(N3CCOCC3)c2n1 [4a, 2,2′,2″,2‴-((4,8-dimorpholinopyrimido[5,4-d]pyrimidine-2,6-diyl)bis(azanetriyl))tetrakis(ethan-1-ol)] | 0 | 40 | > 0.5 µM | 
OC1CCCN(c2nc(N3CCC(F)CC3)c3nc(N4CCCC(O)C4)nc(N4CCC(F)CC4)c3n2)C1 (stereo not shown) [6a, 1,1′-(4,8-bis(4-fluoropiperidin-1-yl)pyrimido[5,4-d]pyrimidine-2,6-diyl)bis(piperidin-3-ol)] | 7 | 48 |  | 
OC[C@@H]1CCCN(c2nc(N3CCSC3)c3nc(N4CCC[C@@H](CO)C4)nc(N4CCSC4)c3n2)C1 [(R)-5b, ((3R,3′R)-(4,8-di(thiazolidin-3-yl)pyrimido[5,4-d]pyrimidine-2,6-diyl)bis(piperidine-1,3-diyl))dimethanol] |  |  | 0.109 ± 0.02 µM | 
OCCN(CCO)c1nc(N2CCC(F)(F)CC2)c2nc(N(CCO)CCO)nc(N3CCC(F)(F)CC3)c2n1 [4d, 2,2′,2″,2‴-((4,8-bis(4,4-difluoropiperidin-1-yl)pyrimido[5,4-d]pyrimidine-2,6-diyl)bis(azanetriyl))tetrakis(ethan-1-ol)] | 41 | 72 | 0.362 ± 0.081 µM | half-life at 0.5 μM [2]: 19 min
OC1CCN(c2nc(N3CCSC3)c3nc(N4CCC(O)CC4)nc(N4CCSC4)c3n2)CC1 [5a, 1,1′-(4,8-di(thiazolidin-3-yl)pyrimido[5,4-d]pyrimidine-2,6-diyl)bis(piperidin-4-ol)] | 29 | 32 |  | 
OCC1CCCN(c2nc(N3CCC(F)CC3)c3nc(N4CCCC(CO)C4)nc(N4CCC(F)CC4)c3n2)C1 (stereo not shown) [6b, ((4,8-bis(4-fluoropiperidin-1-yl)pyrimido[5,4-d]pyrimidine-2,6-diyl)bis(piperidine-1,3-diyl))dimethanol] | 0 | 7 |  | 
OC[C@H]1CCCN(c2nc(N3CCSC3)c3nc(N4CCC[C@H](CO)C4)nc(N4CCSC4)c3n2)C1 [(S)-5b, ((3S,3′S)-(4,8-di(thiazolidin-3-yl)pyrimido[5,4-d]pyrimidine-2,6-diyl)bis(piperidine-1,3-diyl))dimethanol] | 13 | 34 |  | 
C[C@H]1CCCN1c1nc(N(CCO)CCO)nc2c(N3CCC[C@@H]3C)nc(N(CCO)CCO)nc12 [(R)-4f, 2,2′,2″,2‴-((4,8-bis((S)-2-methylpyrrolidin-1-yl)pyrimido[5,4-d]pyrimidine-2,6-diyl)bis(azanetriyl))tetrakis(ethan-1-ol)] |  |  |  | Inhibition Ratio (%) 0.1 μM ([1]; PDE5, compound at 0.1 μM): 27%; Inhibition Ratio (%) 0.5 μM ([1]; PDE5, compound at 0.5 μM): 44%

Further lines, with some results ahead:

inhibition at 0.1 µM [1, 5] [%] | inhibition at 0.5 µM [1, 6] [%] | IC50 [1] | SMILES | also measured
33 | 81 | 0.094 ± 0.009 µM | OCCN(CCO)c1nc(N2CC[C@H](F)C2)c2nc(N(CCO)CCO)nc(N3CCSC3)c2n1 [9b, (S)-2,2′,2″,2‴-((4-(3-fluoropyrrolidin-1-yl)-8-(thiazolidin-3-yl)pyrimido[5,4-d]pyrimidine-2,6-diyl)bis(azanetriyl))tetrakis(ethan-1-ol)] | half-life at 0.5 μM [2]: 10 min
24 | 61 | 0.353 ± 0.057 µM | OCCN(CCO)c1nc(N2CCC(F)(F)C2)c2nc(N(CCO)CCO)nc(N3CCC(F)(F)C3)c2n1 [4i, 2,2′,2″,2‴-((4,8-bis(3,3-difluoropyrrolidin-1-yl)pyrimido[5,4-d]pyrimidine-2,6-diyl)bis(azanetriyl))tetrakis(ethan-1-ol)] | 
45 | 91 | 0.1 ± 0.001 µM | OCCN(CCO)c1nc(N2CCSC2)c2nc(N(CCO)CCO)nc(N3CCSCC3)c2n1 [9a, 2,2′,2″,2‴-((4-(thiazolidin-3-yl)-8-thiomorpholinopyrimido[5,4-d]pyrimidine-2,6-diyl)bis(azanetriyl))tetrakis(ethan-1-ol)] | half-life at 0.5 μM [2]: 4 min
14 | 60 | 0.478 ± 0.003 µM | CC1CCCN1c1nc(N(CCO)CCO)nc2c(N3CCCC3C)nc(N(CCO)CCO)nc12 (stereo not shown) [4f, 2,2′,2″,2‴-((4,8-bis(2-methylpyrrolidin-1-yl)pyrimido[5,4-d]pyrimidine-2,6-diyl)bis(azanetriyl))tetrakis(ethan-1-ol)] | 
31 | 62 | 0.343 ± 0.018 µM | OCCN(CCO)c1nc(N2CCC(F)CC2)c2nc(N(CCO)CCO)nc(N3CCC(F)CC3)c2n1 [4c, 2,2′,2″,2‴-((4,8-bis(4-fluoropiperidin-1-yl)pyrimido[5,4-d]pyrimidine-2,6-diyl)bis(azanetriyl))tetrakis(ethan-1-ol)] | half-life at 0.5 μM [2]: 44 min
7 | < 50 |  | OCCN(CCO)c1nc(N2CCCC2)c2nc(N(CCO)CCO)nc(N3CCCC3)c2n1 [4e, 2,2′,2″,2‴-((4,8-di(pyrrolidin-1-yl)pyrimido[5,4-d]pyrimidine-2,6-diyl)bis(azanetriyl))tetrakis(ethan-1-ol)] | 
16 | 42 |  | C[C@H]1CCCN1c1nc(N(CCO)CCO)nc2c(N3CCC[C@@H]3C)nc(N(CCO)CCO)nc12 [(S)-4f, 2,2′,2″,2‴-((4,8-bis((S)-2-methylpyrrolidin-1-yl)pyrimido[5,4-d]pyrimidine-2,6-diyl)bis(azanetriyl))tetrakis(ethan-1-ol)] | 
34 | 55 | 0.332 ± 0.056 µM | OCCN(CCO)c1nc(N2CC[C@H](F)C2)c2nc(N(CCO)CCO)nc(N3CC[C@H](F)C3)c2n1 [(S)-4h, 2,2′,2″,2‴-((4,8-bis((S)-3-fluoropyrrolidin-1-yl)pyrimido[5,4-d]pyrimidine-2,6-diyl)bis(azanetriyl))tetrakis(ethan-1-ol)] | half-life at 0.5 μM [2]: 67 min
60 | 93 | 0.113 µM and 0.064 µM | OCCN(CCO)c1nc(N2CCSC2)c2nc(N(CCO)CCO)nc(N3CCSC3)c2n1 [4g, 2,2′,2″,2‴-((4,8-di(thiazolidin-3-yl)pyrimido[5,4-d]pyrimidine-2,6-diyl)bis(azanetriyl))tetrakis(ethan-1-ol)] | half-life at 0.5 μM [2]: 5 min
53 | 75 | 0.064 µM and 0.113 µM | OCCN(CCO)c1nc(N2CCSCC2)c2nc(N(CCO)CCO)nc(N3CCSCC3)c2n1 [4b, 2,2′,2″,2‴-((4,8-dithiomorpholinopyrimido[5,4-d]pyrimidine-2,6-diyl)bis(azanetriyl))tetrakis(ethan-1-ol)] | half-life at 0.5 μM [2]: 7 min
27 | 44 |  | OCCN(CCO)c1nc(N2CC[C@@H](F)C2)c2nc(N(CCO)CCO)nc(N3CC[C@@H](F)C3)c2n1 [(R)-4h, 2,2′,2″,2‴-((4,8-bis((R)-3-fluoropyrrolidin-1-yl)pyrimido[5,4-d]pyrimidine-2,6-diyl)bis(azanetriyl))tetrakis(ethan-1-ol)] | 
